Source: ChEMBL document CHEMBL5726927, “Heterocyclic derivatives as modulators of kinase activity” (2019)

Assay: P70S6K Enzyme Assay: P70S6K inhibitor compounds were diluted and plated in 96 well plates. A reaction mixture including the following components was then added to the compound plate to initiate the enzyme reaction; P70S6K (3 nM, T412E mutant, Millipore) was mixed with 24 μM ATP in an assay buffer containing 100 mM Hepes (pH 7.5), 5 mM MgCl2, 1 mM DTT, 0.015% Brij and 1 μM of the substrate peptide FITC-AHA-AKRRRLSSLRA-OH (derived from the S6 ribosomal protein sequence, FITC=fluorescein isothiocyanate, AHA=6-aminohexanoic acid). The reaction was incubated for 90 min at 25° C., before the addition of 10 mM EDTA to stop the reaction. The proportion of substrate and product (phosphorylated) peptide was analysed on a Caliper Life Sciences Lab Chip 3000, using a pressure of −1.4 psi, and upstream and downstream voltages of −3000 and −700 respectively. Product peaks were resolved before substrate peaks on the resulting chromatograms.

- IC50: > 1000 nM
Structure (SMILES): O=C1CNc2ncnc(N3CCN(C(CN4CCCC4)c4ccc(F)c(Cl)c4)CC3)c2N1 (stereo unspecified)
